Measurements from patent US4997825A, “Synergistic treatment method” (Eli Lilly and Company, priority 1989, dated 1991).
Like-named read-outs stand apart in the source and are kept apart here. No end group written: not given here.

Key:
Plasma GH [1] = assay: Plasma growth hormone in lambs during subcutaneous infusion of hGRF analog (serine at position 27), with or without estradiol implant; assay type: in vivo; details: no hGRF (Control)
Description: This experiment was carried out substantially according to the scheme of Example 1. In this test, the GRF was a hGRF analog having serine in place of methionine at position 27; the GRF was prepared by recombinant methods. Four rates of hGRF were used, 0.75, 1.5 and 3.0 mg/day, and controls.
The hGRF was infused through a subcutaneous Silastic cannula using an IVAC model 630 pump (IVAC Corporation, San Diego). The hGRF was diluted in physiological saline to provide concentrations such that 48 ml/day of each infusate could be supplied to each animal.

Plasma GH [2] = assay: Plasma growth hormone in wethers during 5-day continuous infusion of hGRF (acid form) through a jugular cannula, with or without estradiol implant; radioimmunological analysis; assay type: in vivo; details: no hGRF (Control), estradiol implant about 25 mcg/day
Description: Wethers weighing about 32 kg were confined in metabolism crates for about 7 days before the experiment began. […] Two days before the start of the treatment schedule, a Silastic (Dow Corning Corporation) cannula was inserted in each jugular vein of each wether. Four animals, two implanted and two unimplanted, were assigned to three GRF treatments, 1.5 mg/day, 0.33 mg/day and control. The GRF which was used was hGRF in the acid form, synthesized by solid phase synthetic methodology according to the general procedure of Merrifield et al., Biochemistry 21, 5020 (1982).
GRF was infused through one of the cannulae continuously for 5 days to the treated wethers, using a Harvard peristaltic pump. The GRF was diluted in physiological saline to a concentration such that the actual delivery rate was 0.5 ml of infusate per minute.
Six blood samples were collected from each wether each day, beginning 1 day before the start of infusion and continuing 1 day after the end of it. Two samples were obtained within 1 hour just before the beginning of each 1-hour ad libitum meal, and 1 sample was taken at the end of each meal. The animals received two 1-hour meals daily at 12 hour intervals. Additional blood samples were taken 1 hour before, just before, 10 minutes after and 60 minutes after the start of infusion. At the end of the infusion period, additional blood samples were obtained at 10, 20, 30 and 60 minutes after the termination of infusion.
The plasma was separated from the other components of the blood samples, and was analyzed for growth hormone by a standard radioimmunological procedure.
The table below reports the growth hormone levels in the animals, reported as means of all of the analyses in the stated time period. The data from animals which were implanted with estradiol are indicated by "+" in the column headed Estradiol.

growth hormone [3] = details: intravenously, normal men; cited from earlier work
[4] = system: growth hormone concentration; details: large doses, normal men, measured fasting; cited from earlier work
growth hormone [5] = details: steers, finishing diet with 10 mg/head/day; cited from earlier work
growth hormone [6] = details: rats, Rhesus monkeys, rabbits, sheep, cattle and chickens, as well as humans; cited from earlier work

C[C@]12CC[C@@H]3c4ccc(O)cc4CC[C@H]3[C@@H]1CC[C@@H]2O [Estradiol, estradiol]
Plasma GH, Infusion Period Day 1 (Plasma GH [1]): 5.9 ng/mL | Plasma GH, Infusion Period Day 2 (Plasma GH [1]): 10.0 ng/mL | Plasma GH, Infusion Period Day 3 (Plasma GH [1]): 6.2 ng/mL | Plasma GH, Infusion Period Day 5 (Plasma GH [1]): 8.8 ng/mL | Plasma GH, Posttreatment (Plasma GH [1]): 8.7 ng/mL | Plasma GH, Pretreatment (Plasma GH [1]): 11.6 ng/mL | Plasma GH, Infusion Period Day 1 (Plasma GH [2]): 3.3 ng/mL | Plasma GH, Infusion Period Day 2 (Plasma GH [2]): 4.3 ng/mL | Plasma GH, Infusion Period Day 3 (Plasma GH [2]): 2.9 ng/mL | Plasma GH, Infusion Period Day 4 (Plasma GH [2]): 5.2 ng/mL | Plasma GH, Infusion Period Day 5 (Plasma GH [2]): 4.2 ng/mL | Plasma GH, Posttreatment (Plasma GH [2]; day after infusion): 2.4 ng/mL | Plasma GH, Pretreatment (Plasma GH [2]; mean of analyses, day before infusion): 2.8 ng/mL

C#C[C@]1(O)CC[C@H]2[C@@H]3CCc4cc(O)ccc4[C@H]3CC[C@@]21C [Ethinyl estradiol]
growth hormone (growth hormone [3]): significant increase in growth hormone in 5 of 6 patients

CC/C(=C(/CC)c1ccc(O)cc1)c1ccc(O)cc1 [diethylstilbestrol]
growth hormone concentration [4]: increased growth hormone concentration

CC/C(=C(/CC)c1ccc(O)cc1)c1ccc(O)cc1 [stilbestrol]
growth hormone (growth hormone [5]): increased growth hormone

endogenous human GRF: GRF naturally produced by humans; peptide of 43 or 44 amino acids (YADAIFTNSYRKVLGQLSARKLLQDIMSRQQGESNQERGARARL; ends and bridges not checked; UniProt P01286 32-75, looked up)
GRF activity across species (growth hormone [6]): active

hGRF40 acid: human GRF analog having 40 amino acids and a free acid terminal (YADAIFTNSYRKVLGQLSARKLLQDIMSRQQGESNQERGA-OH; UniProt P01286 32-71, looked up, fragment)
GRF activity across species (growth hormone [6]): active
